# From patent US9266881B2, “Triazolopyridinone PDE10 inhibitors” (Merck Sharp & Dohme Corp., priority 2011, dated 2016)
# Like-named read-outs stand apart in the source and are kept apart here.
# Target: human PDE10A2 (Homo sapiens (Human), UniProt Q9Y233)
# Test: PDE10 fluorescence polarization (IMAP FP) inhibition assay
# Type: biochemical
# Protocol: The activity of the compounds in accordance with the present invention as PDE10 inhibitors may be readily determined without undue experimentation using a fluorescence polarization (FP) methodology that is well known in the art (Huang, W., et al., J. Biomol Screen, 2002, 7: 215).
# In a typical experiment the PDE10 inhibitory activity of the compounds of the present invention was determined in accordance with the following experimental method. PDE10A2 was amplified from human fetal brain cDNA (Clontech, Mountain View, Calif.) using a forward primer corresponding to nucleotides 56-77 of human PDE10A2 (Accession No. AF127480, Genbank Identifier 4894716), containing a Kozak consensus sequence, and a reverse primer corresponding to nucleotides 2406-2413 of human PDE10A2 (Accession No. AF127480, Genbank Identifier 4894716). Amplification with Easy-A polymerase (Stratagene, La Jolla, Calif.) was 95° C. for 2 minutes followed by thirty three cycles of 95° C. for 40 seconds, 55° C. for 30 seconds, and 72° C. for 2 minutes 48 seconds. Final extension was 72° C. for 7 minutes. The PCR product was TA cloned into pcDNA3.2-TOPO (Invitrogen, Carlsbad, Calif.) according to standard protocol. AD293 cells with 70-80% confluency were transiently transfected with human PDE10A2/pcDNA3.2-TOPO using Lipofectamine 2000 according to manufacturer specifications (Invitrogen, Carlsbad, Calif.). Cells were harvested 48 hours post-transfection and lysed by sonication (setting 3, 10×5 sec pulses) in a buffer containing 20 mM HEPES, 1 mM EDTA and protease inhibitor cocktail (Roche). Lysate was collected by centrifugation at 75,000×g for 20 minutes. Supernatant containing the cytoplasmic fraction was used for evaluation of PDE10A2 activity. The fluorescence polarization assay for cyclic nucleotide phosphodiesterases was performed using an IMAP® FP kit supplied by Molecular Devices, Sunnyvale, Calif. (product #R8139). IMAP® technology has been applied previously to phosphodiesterase assays (Huang, W., et al., J. Biomol Screen, 2002, 7: 215). Assays were performed at room temperature in 384-well microtiter plates with an incubation volume of 20.2 μl. Solutions of test compounds were prepared in DMSO and serially diluted with DMSO to yield 8 μL of each of 10 solutions differing by 3-fold in concentration, at 32 serial dilutions per plate. 100% inhibition is determined using a known PDE10 inhibitor, which can be any compound that is present at 5,000 times its Ki value in the assay described as follows, such as papaverine (see Siuciak, et al. Neuropharmacology (2006) 51:386-396; Becker, et al. Behav Brain Res (2008) 186(2):155-60; Threlfell, et al., J Pharmacol Exp Ther (2009) 328(3):785-795), 2-{4-[pyridin-4-yl-1-(2,2,2-trifluoroethyl)-1H-pyrazol-3-yl]phenoxymethyl}quinoline succinic acid or 2-[4-(1-methyl-4-pyridin-4-yl-1H-pyrazol-3-yl)-phenoxymethyl]quinoline succinic acid (see Schmidt, et al. J Pharmacol Exp Ther (2008) 325:681-690; Threlfell, et al., J Pharmacol Exp Ther (2009) 328(3): 785-795). 0% of inhibition is determined by using DMSO (1% final concentrations).
# A Labcyte Echo 555 (Labcyte, Sunnyvale, Calif.) is used to dispense 200 nL from each well of the titration plate to the 384 well assay plate. A solution of enzyme (1/1600 dilution from aliquots; sufficient to produce 20% substrate conversion) and a separate solution of FAM-labeled cAMP PDE from Molecular Devices (product #R7506), at a final concentration of 50 nM are made in the assay buffer (10 mM Tris HCl, pH 7.2, 10 mM MgCl2, 0.05% NaN3 0.01% Tween-20, and 1 mM DTT). The enzyme and the substrate are then added to the assay plates in two consecutive additions of 10 μL, and then shaken to mix. The reaction is allowed to proceed at room temperature for 30 minutes. A binding solution is then made from the kit components, comprised of 80% Solution A, 20% Solution B and binding reagent at a volume of 1/600 the total binding solution. […]
# [1] = human PDE10A2 lysate, IMAP FP, 50 nM FAM-labeled cAMP, room temperature, read-out: PDE10A Ki
# [2] = human PDE10 enzyme, aforementioned assays, read-out: Ki for inhibiting the human PDE10 enzyme (range given)
# Chain of human PDE10A2 (Q9Y233 267-1055): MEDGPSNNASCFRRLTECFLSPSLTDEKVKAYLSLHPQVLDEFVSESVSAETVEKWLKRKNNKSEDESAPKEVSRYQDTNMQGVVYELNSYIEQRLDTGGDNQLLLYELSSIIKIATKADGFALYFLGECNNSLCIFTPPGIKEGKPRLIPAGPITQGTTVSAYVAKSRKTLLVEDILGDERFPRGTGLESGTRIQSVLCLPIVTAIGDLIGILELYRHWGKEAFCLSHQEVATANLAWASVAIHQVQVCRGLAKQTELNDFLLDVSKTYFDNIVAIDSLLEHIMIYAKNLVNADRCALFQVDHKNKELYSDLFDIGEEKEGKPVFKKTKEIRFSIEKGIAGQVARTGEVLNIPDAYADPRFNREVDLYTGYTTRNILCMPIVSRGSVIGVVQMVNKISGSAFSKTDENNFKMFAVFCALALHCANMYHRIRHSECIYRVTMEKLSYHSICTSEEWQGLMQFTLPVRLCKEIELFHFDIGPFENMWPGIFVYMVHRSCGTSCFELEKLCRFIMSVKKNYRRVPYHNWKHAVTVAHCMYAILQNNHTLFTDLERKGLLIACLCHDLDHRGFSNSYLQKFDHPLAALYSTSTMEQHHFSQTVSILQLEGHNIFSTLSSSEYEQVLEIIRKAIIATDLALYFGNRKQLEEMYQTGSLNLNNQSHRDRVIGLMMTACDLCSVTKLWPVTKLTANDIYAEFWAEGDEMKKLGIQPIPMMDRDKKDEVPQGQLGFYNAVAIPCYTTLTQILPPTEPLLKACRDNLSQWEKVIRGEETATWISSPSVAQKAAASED
smiles,measurement,setting,value
O=c1n(CCc2ccc3ccccc3n2)nc2c(Br)cccn12 [Compound 1-6],Ki,[1],37 nM
"O=c1n(CCc2ccc3ccccc3n2)nc2cccc(Br)n12 [Compound 2-4, 5-bromo-2-(2-quinolin-2-ylethyl)[1,2,4]triazolo[4,3-a]pyridin-3(2H)-one]",Ki,[1],59 nM
"O=c1n(CCc2ccc3ccccc3n2)nc2ccc(Br)cn12 [Compound 3-4, 6-bromo-2-(2-quinolin-2-ylethyl)[1,2,4]triazolo[4,3-a]pyridin-3(2H)-one]",Ki,[1],155 nM
"O=c1n(CCc2ccc3ccccc3n2)nc2c(-c3ncco3)cccn12 [Compound 4-1, 8-(1,3-oxazol-2-yl)-2-(2-quinolin-2-ylethyl)[1,2,4]triazolo[4,3-a]pyridin-3(2H)-one]",Ki,[1],22 nM
"O=c1n(CCc2ccc3ccccc3n2)nc2cccc(-c3ccncc3)n12 [Compound 5-1, 5-pyridin-4-yl-2-(2-quinolin-2-ylethyl)[1,2,4]triazolo[4,3-a]pyridin-3(2H)-one]",Ki,[1],4.4 nM
same,Ki,[2],0.1 to 10 nM
"O=c1n(CCc2ccc3ccccc3n2)nc2cccc(N3CCOCC3)n12 [Compound 6-1, 5-morpholin-4-yl-2-(2-quinolin-2-ylethyl)[1,2,4]triazolo[4,3-a]pyridin-3(2H)-one]",Ki,[1],2.5 nM
same,Ki,[2],0.1 to 10 nM
"COc1ccc(C(C)(O)c2cccc3nn(CCc4ccc5ccccc5n4)c(=O)n23)cc1 (stereo not shown) [Compound 7-2, 5-[1-hydroxy-1-(4-methoxyphenyl)ethyl]-2-(2 - quinolin-2-ylethyl)[1,2,4]triazolo[4,3-a]pyridin-3(2H)-one]",Ki,[1],11 nM
"O=C(Nc1cccnc1)c1cccc2nn(CCc3ccc4ccccc4n3)c(=O)n12 [Compound 8-2, 3-oxo-N-pyridin-3-yl-2-(2-quinolin-2-ylethyl)-2,3-dihydro[1,2,4]triazolo[4,3-a]pyridine-5-carboxamide]",Ki,[1],97 nM
"O=c1n(CCc2ccc3ccccc3n2)nc2ccc(-c3cccnc3)cn12 [Compound 9-1, 6-pyridin-3-yl-2-(2-quinolin-2-ylethyl)[1,2,4]triazolo[4,3-a]pyridin-3(2H)-one]",Ki,[1],510 nM
"O=c1n(CCc2ccc3ncccc3n2)nc2c(-c3ccncc3)cccn12 [Compound 10-4, 2-[2-(1,5-naphthyridin-2-yl)ethyl]-8-pyridin-4-yl[1,2,4]triazolo[4,3-a]pyridin-3(2H)-one]",Ki,[1],103 nM
"Cn1cc(-c2ccccc2)nc1CCn1nc2cccc(Br)n2c1=O [Compound 11-4, 5-bromo-2-[2-(1-methyl-4-phenyl-1H-imidazol-2-yl)ethyl][1,2,4]triazolo[4,3-a]pyridin-3(2H)-one]",Ki,[1],7.2 nM
same,Ki,[2],0.1 to 10 nM
"Cn1cc(-c2ccccc2)nc1CCn1nc2cccc(N3CCOCC3)n2c1=O [Compound 12-1, 2-[2-(1-methyl-4-phenyl-1H-imidazol-2-yl)ethyl]-5-morpholin-4-yl[1,2,4]triazolo[4,3-a]pyridin-3(2H)-one]",Ki,[1],0.41 nM
same,Ki,[2],0.1 to 10 nM
"O=c1n(C[C@@H]2C[C@H]2c2ccccn2)nc2cccc(N3CCOCC3)n12 [Compound 13-6, 5-morpholino-2-(((1R,2R)-2-(pyridin-2-yl)cyclopropyl)methyl)-[1,2,4]triazolo[4,3-a]pyridin-3(2H)-one]",Ki,[1],546 nM
"O=c1n(CCc2ccc3ccccc3n2)nc2cccc(-c3cccnc3)n12 [Compound A-1, 5-pyridin-3-yl-2-(2-quinolin-2-ylethyl)[1,2,4]triazolo[4,3-a]pyridin-3(2H)-one]",Ki,[1],9 nM
same,Ki,[2],0.1 to 10 nM
"Cc1cccn2c(=O)n(CCc3ccc4ccccc4n3)nc12 [Compound A-2, 8-methyl-2-(2-quinolin-2-ylethyl)[1,2,4]triazolo[4,3-a]pyridin-3(2H)-one]",Ki,[1],74 nM
"Cc1ccc(-c2cccc3nn(CCc4ccc5ccccc5n4)c(=O)n23)cc1 [Compound A-3, 5-(4-methylphenyl)-2-(2-quinolin-2-ylethyl)[1,2,4]triazolo[4,3-a]pyridin-3(2H)-one]",Ki,[1],17 nM
"O=c1n(CCc2ccc3ccccc3n2)nc2cccc(-c3cncs3)n12 [Compound A-4, 2-(2-quinolin-2-ylethyl)-5-(1,3-thiazol-5-yl)[1,2,4]triazolo[4,3-a]pyridin-3(2H)-one]",Ki,[1],23 nM
"O=c1n(CCc2ccc3ccccc3n2)nc2cccc(-c3ccccc3)n12 [Compound A-5, 5-phenyl-2-(2-quinolin-2-ylethyl)[1,2,4]triazolo[4,3-a]pyridin-3(2H)-one]",Ki,[1],20 nM
"O=c1n(CCc2ccc3ccccc3n2)nc2cccc(N3CCCCC3)n12 [Compound A-6, 5-piperidin-1-yl-2-(2-quinolin-2-ylethyl)[1,2,4]triazolo[4,3-a]pyridin-3(2H)-one]",Ki,[1],19 nM
"O=c1n(CCc2ccc3ccccc3n2)nc2cccc(NCc3cccnc3)n12 [Compound A-7, 5-[(pyridin-3-ylmethyl)amino]-2-(2-quinolin-2-ylethyl)[1,2,4]triazolo[4,3-a]pyridin-3(2H)-one]",Ki,[1],12 nM
"CC(C)(O)c1cccc2nn(CCc3ccc4ccccc4n3)c(=O)n12 [Compound A-8, 5-(1-hydroxy-1-methylethyl)-2-(2-quinolin-2-ylethyl)[1,2,4]triazolo[4,3-a]pyridin-3(2H)-one]",Ki,[1],72 nM
"Cn1cc(-c2ccccc2)nc1CCn1nc2cccc(-c3ccncc3)n2c1=O [Compound B-1, 2-[2-(1-methyl-4-phenyl-1H-imidazol-2-yl)ethyl]-5-pyridin-4-yl[1,2,4]triazolo[4,3-a]pyridin-3(2H)-one]",Ki,[1],2 nM
same,Ki,[2],0.1 to 10 nM
